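Values below derive from 48-hour exposures of cells grown in 96-well plates, with endpoints linearly interpolated between the two concentrations bracketing the appropriate inhibition level. At the GI50, growth is halved. TGI marks complete inhibition of growth.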
Assays:
Test in all cases: inhibition of tumour cell growth, NCI panel, 48 h
NCI-H226 lung = test system: NCI-H226 lung
MDA-MB-231 breast = test system: MDA-MB-231 breast
UACC-62 melanoma = test system: UACC-62 melanoma
CCRF-CEM leukemia = test system: CCRF-CEM leukemia
CAKI-1 renal = test system: CAKI-1 renal
BT-549 breast = test system: BT-549 breast
UACC-257 melanoma = test system: UACC-257 melanoma
IGROV1 ovarian = test system: IGROV1 ovarian
HOP-62 NSCLC = test system: HOP-62 NSCLC
OVCAR-3 ovarian = test system: OVCAR-3 ovarian
UO-31 renal = test system: UO-31 renal
MALME-3M melanoma = test system: MALME-3M melanoma
NCI-H23 lung = test system: NCI-H23 lung
SF-539 CNS = test system: SF-539 CNS
MCF7 breast = test system: MCF7 breast
NCI-H522 lung = test system: NCI-H522 lung
M14 melanoma = test system: M14 melanoma
786-0 renal = test system: 786-0 renal
OVCAR-5 ovarian = test system: OVCAR-5 ovarian
SK-MEL-2 melanoma = test system: SK-MEL-2 melanoma
HS 578T breast = test system: HS 578T breast
SK-MEL-28 melanoma = test system: SK-MEL-28 melanoma
SN12C renal = test system: SN12C renal
HCT-116 colon = test system: HCT-116 colon
A549 NSCLC = test system: A549 NSCLC
SF-268 CNS = test system: SF-268 CNS
SNB-75 CNS = test system: SNB-75 CNS
RPMI-8226 leukemia = test system: RPMI-8226 leukemia
A498 renal = test system: A498 renal
SR leukemia = test system: SR leukemia
MOLT-4 leukemia = test system: MOLT-4 leukemia
SK-MEL-5 melanoma = test system: SK-MEL-5 melanoma
COLO 205 colon = test system: COLO 205 colon
HL-60(TB) leukemia = test system: HL-60(TB) leukemia
HCT-15 colon = test system: HCT-15 colon
HCC-2998 colon = test system: HCC-2998 colon
HT29 colon = test system: HT29 colon
T-47D breast = test system: T-47D breast
MDA-MB-435 = test system: MDA-MB-435
PC-3 prostate = test system: PC-3 prostate
TK-10 renal = test system: TK-10 renal
OVCAR-4 ovarian = test system: OVCAR-4 ovarian
LOX IMVI melanoma = test system: LOX IMVI melanoma
K-562 leukemia = test system: K-562 leukemia
EKVX NSCLC = test system: EKVX NSCLC
KM12 colon = test system: KM12 colon
HOP-92 NSCLC = test system: HOP-92 NSCLC
RXF 393 renal = test system: RXF 393 renal
NCI-H460 lung = test system: NCI-H460 lung
SK-OV-3 ovarian = test system: SK-OV-3 ovarian
ACHN renal = test system: ACHN renal
DU-145 prostate = test system: DU-145 prostate
SF-295 CNS = test system: SF-295 CNS
MDA-MB-468 breast = test system: MDA-MB-468 breast
SNB-19 CNS = test system: SNB-19 CNS
U251 CNS = test system: U251 CNS
SW-620 colon = test system: SW-620 colon

Q: Which results are given for `CNC(=O)c1cc(Oc2ccc3nc(NC(=O)Nc4cccc(OC(F)(F)F)c4)sc3c2)ccn1`?
A: GI50 (NCI-H226 lung): 2.56 µM; TGI (NCI-H226 lung): 6.14 µM; GI50 (MDA-MB-231 breast): 2.37 µM; TGI (MDA-MB-231 breast): 10.9 µM; GI50 (UACC-62 melanoma): 2.07 µM; TGI (UACC-62 melanoma): 13.3 µM; GI50 (CCRF-CEM leukemia): 9.07 µM; TGI (CCRF-CEM leukemia): > 100 µM; GI50 (CAKI-1 renal): 2.01 µM; TGI (CAKI-1 renal): 4.72 µM; GI50 (BT-549 breast): 3.21 µM; TGI (BT-549 breast): 9.02 µM; GI50 (UACC-257 melanoma): 5.89 µM; TGI (UACC-257 melanoma): > 100 µM; GI50 (IGROV1 ovarian): 4.65 µM; TGI (IGROV1 ovarian): 21.6 µM; GI50 (HOP-62 NSCLC): 1.72 µM; TGI (HOP-62 NSCLC): 3.47 µM; GI50 (OVCAR-3 ovarian): 3.27 µM; TGI (OVCAR-3 ovarian): > 100 µM; GI50 (UO-31 renal): 3.93 µM; TGI (UO-31 renal): > 100 µM; GI50 (MALME-3M melanoma): 1.82 µM; TGI (MALME-3M melanoma): 5.3 µM; GI50 (NCI-H23 lung): 2.91 µM; TGI (NCI-H23 lung): 11.9 µM; GI50 (SF-539 CNS): 3.07 µM; TGI (SF-539 CNS): 10.2 µM; GI50 (MCF7 breast): 8.31 µM; TGI (MCF7 breast): > 100 µM; GI50 (NCI-H522 lung): 3.5 µM; TGI (NCI-H522 lung): > 100 µM; GI50 (M14 melanoma): 5.76 µM; TGI (M14 melanoma): > 100 µM; GI50 (786-0 renal): 2.71 µM; TGI (786-0 renal): 7.41 µM; GI50 (OVCAR-5 ovarian): 5.58 µM; TGI (OVCAR-5 ovarian): > 100 µM; GI50 (SK-MEL-2 melanoma): 2.51 µM; TGI (SK-MEL-2 melanoma): 8.12 µM; GI50 (HS 578T breast): 2.29 µM; TGI (HS 578T breast): 7.09 µM; GI50 (SK-MEL-28 melanoma): 2.66 µM; TGI (SK-MEL-28 melanoma): > 100 µM; GI50 (SN12C renal): 5.11 µM; TGI (SN12C renal): > 100 µM; GI50 (HCT-116 colon): 4.67 µM; TGI (HCT-116 colon): > 100 µM; GI50 (A549 NSCLC): 2.69 µM; TGI (A549 NSCLC): > 100 µM; GI50 (SF-268 CNS): 4.3 µM; TGI (SF-268 CNS): 89 µM; GI50 (SNB-75 CNS): 2.34 µM; TGI (SNB-75 CNS): 5.52 µM; GI50 (RPMI-8226 leukemia): > 100 µM; TGI (RPMI-8226 leukemia): > 100 µM; GI50 (A498 renal): 4.25 µM; TGI (A498 renal): 9.77 µM; GI50 (SR leukemia): > 100 µM; TGI (SR leukemia): > 100 µM; GI50 (MOLT-4 leukemia): > 100 µM; TGI (MOLT-4 leukemia): > 100 µM; GI50 (SK-MEL-5 melanoma): 3.08 µM; TGI (SK-MEL-5 melanoma): > 100 µM; GI50 (COLO 205 colon): 5.43 µM; TGI (COLO 205 colon): > 100 µM; GI50 (HL-60(TB) leukemia): > 100 µM; TGI (HL-60(TB) leukemia): > 100 µM; GI50 (HCT-15 colon): 4.07 µM; TGI (HCT-15 colon): > 100 µM; GI50 (HCC-2998 colon): 8.69 µM; TGI (HCC-2998 colon): > 100 µM; GI50 (HT29 colon): 7.9 µM; TGI (HT29 colon): > 100 µM; GI50 (T-47D breast): 5.08 µM; TGI (T-47D breast): > 100 µM; GI50 (MDA-MB-435): 4.27 µM; TGI (MDA-MB-435): > 100 µM; GI50 (PC-3 prostate): 2.22 µM; TGI (PC-3 prostate): > 100 µM; GI50 (TK-10 renal): 4.09 µM; TGI (TK-10 renal): 13.2 µM; GI50 (OVCAR-4 ovarian): 2.97 µM; TGI (OVCAR-4 ovarian): 9.23 µM; GI50 (LOX IMVI melanoma): 4.15 µM; TGI (LOX IMVI melanoma): 23.6 µM; GI50 (K-562 leukemia): 5.51 µM; TGI (K-562 leukemia): > 100 µM; GI50 (EKVX NSCLC): 3.56 µM; TGI (EKVX NSCLC): > 100 µM; GI50 (KM12 colon): 0.809 µM; TGI (KM12 colon): > 100 µM; GI50 (HOP-92 NSCLC): 1.66 µM; TGI (HOP-92 NSCLC): 4.46 µM; GI50 (RXF 393 renal): 1.91 µM; TGI (RXF 393 renal): 4.82 µM; GI50 (NCI-H460 lung): 2.58 µM; TGI (NCI-H460 lung): > 100 µM; GI50 (SK-OV-3 ovarian): 3 µM; TGI (SK-OV-3 ovarian): 6.83 µM; GI50 (ACHN renal): 2.32 µM; TGI (ACHN renal): 7.26 µM; GI50 (DU-145 prostate): 3.64 µM; TGI (DU-145 prostate): > 100 µM; GI50 (SF-295 CNS): 1.7 µM; TGI (SF-295 CNS): 4.17 µM; GI50 (MDA-MB-468 breast): 2.16 µM; TGI (MDA-MB-468 breast): 13.5 µM; GI50 (SNB-19 CNS): 2.22 µM; TGI (SNB-19 CNS): 5.55 µM; GI50 (U251 CNS): 2.43 µM; TGI (U251 CNS): 6.27 µM; GI50 (SW-620 colon): 4.94 µM; TGI (SW-620 colon): > 100 µM

Reference: PubChem BioAssay (NCI)
